Laboratory results taken from ChEMBL document CHEMBL1909570, “Synthesis and antibacterial activity of N4-mono alkyl derivatives of novel glycopeptide LYV07ww01” (2011).
In brackets after ≈: the same amount, converted by molar mass.

How the values were obtained:
Type in all cases: functional
Staphylococcus aureus [1] = assay: Antibacterial activity against Staphylococcus aureus 26003 by CLSI agar microdilution method
Streptococcus pneumoniae [2] = assay: Antibacterial activity against Streptococcus pneumoniae 31002 by CLSI agar microdilution method
Staphylococcus = assay: Antibacterial activity against Staphylococcus albus 26101 by CLSI agar microdilution method
Enterococcus faecium [3] = assay: Antibacterial activity against Enterococcus faecium 32220 by CLSI agar microdilution method
Streptococcus = assay: Antibacterial activity against Streptococcus gamma 32206 by CLSI agar microdilution method
[4] = test system: Staphylococcus epidermidis; assay: Antibacterial activity against Staphylococcus epidermidis 26069 by CLSI agar microdilution method
Staphylococcus aureus [5] = assay: microbe, parasite or virus in culture; settings: ATCC 25923
Description: Antibacterial activity against methicillin-sensitive Staphylococcus aureus ATCC 25923 by CLSI agar microdilution method

Staphylococcus aureus [6] = assay: microbe, parasite or virus in culture; settings: ATCC 33591
Description: Antibacterial activity against methicillin-resistant Staphylococcus aureus ATCC 33591 by CLSI agar microdilution method

Enterococcus faecalis [7] = assay: microbe, parasite or virus in culture; settings: ATCC 29212
Description: Antibacterial activity against vancomycin-sensitive Enterococcus faecalis ATCC 29212 by CLSI agar microdilution method

Enterococcus faecalis [8] = assay: microbe, parasite or virus in culture; settings: ATCC 51299
Enterococcus faecium [9] = assay: Antibacterial activity against vancomycin-sensitive Enterococcus faecium ATCC 35667 by CLSI agar microdilution method
Enterococcus faecium [10] = assay: Antibacterial activity against vancomycin-resistant Enterococcus faecium MEFA 0039 by CLSI agar microdilution method
Streptococcus pneumoniae [11] = assay: Antibacterial activity against penicillin-intermediate Streptococcus pneumoniae ATCC 49619 by CLSI broth microdilution method
Streptococcus pneumoniae [12] = assay: Antibacterial activity against penicillin-resistant Streptococcus pneumoniae MSPN 0003 by CLSI broth microdilution method
Enterococcus faecium [13] = assay: Antibacterial activity against vancomycin-resistant Enterococcus faecium MEFA 0039 by CLSI agar microdilution method relative to vancomycin
Enterococcus faecalis [14] = assay: Antibacterial activity against vancomycin-resistant Enterococcus faecalis ATCC 51299 by CLSI agar microdilution method relative to vancomycin
Enterococcus faecium [15] = assay: Antibacterial activity against vancomycin-sensitive Enterococcus faecium ATCC 35667 by CLSI agar microdilution method relative to LYV07ww01

Row | SMILES | MIC (Staphylococcus aureus [1]) [µg/mL] | MIC (Streptococcus pneumoniae [2]) [µg/mL] | MIC (Staphylococcus) [µg/mL] | MIC (Enterococcus faecium [3]) [µg/mL] | MIC (Streptococcus) [µg/mL] | MIC [4] [µg/mL] | MIC (Staphylococcus aureus [5]) [µg/mL] | MIC (Staphylococcus aureus [6]) [µg/mL] | MIC (Enterococcus faecalis [7]) [µg/mL] | MIC (Enterococcus faecalis [8]) [µg/mL] | MIC (Enterococcus faecium [9]) [µg/mL] | MIC (Enterococcus faecium [10]) [µg/mL] | MIC (Streptococcus pneumoniae [11]) [µg/mL] | MIC (Streptococcus pneumoniae [12]) [µg/mL] | fold change (FC) (Enterococcus faecium [13]) | fold change (FC) (Enterococcus faecalis [14]) | fold change (FC) (Enterococcus faecium [15])
1 | CN[C@H](CC(C)C)C(=O)N[C@H]1C(=O)N[C@@H](CC(N)=O)C(=O)N[C@H]2C(=O)N[C@H]3C(=O)N[C@H](C(=O)N[C@@H](C(=O)O)c4cc(O)cc(O)c4-c4cc3ccc4O)[C@H](O[C@H]3C[C@](C)(N)[C@H](O)[C@H](C)O3)c3ccc(c(Cl)c3)Oc3cc2cc(c3O[C@@H]2O[C@H](CO)[C@@H](O)[C@H](O)[C@H]2O[C@H]2C[C@](C)(N)[C@H](O)[C@H](C)O2)Oc2ccc(cc2Cl)[C@H]1O | 0.39 (≈ 0.245 µM) | 0.098 (≈ 0.0615 µM) | 0.78 (≈ 0.49 µM) | 3.13 (≈ 1.97 µM) | 0.78 (≈ 0.49 µM) | > 25 | 0.25 (≈ 0.157 µM) | 0.125 (≈ 0.0785 µM) | 0.25 (≈ 0.157 µM) | 0.5 (≈ 0.314 µM) | 0.125 (≈ 0.0785 µM) | 8 (≈ 5.02 µM) | 0.063 (≈ 0.0396 µM) | 0.125 (≈ 0.0785 µM) | – | – | –
2 | CN[C@H](CC(C)C)C(=O)N[C@H]1C(=O)N[C@@H](CC(N)=O)C(=O)N[C@H]2C(=O)N[C@H]3C(=O)N[C@H](C(=O)N[C@@H](C(=O)O)c4cc(O)cc(O)c4-c4cc3ccc4O)[C@H](O[C@H]3C[C@](C)(N)[C@H](O)[C@H](C)O3)c3ccc(c(Cl)c3)Oc3cc2cc(c3O[C@@H]2O[C@H](CO)[C@@H](O)[C@H](O)[C@H]2O[C@H]2C[C@](C)(NCc3ccccc3Cl)[C@H](O)[C@H](C)O2)Oc2ccc(cc2Cl)[C@H]1O | 1.56 (≈ 0.909 µM) | 0.78 (≈ 0.454 µM) | 3.13 (≈ 1.82 µM) | 1.56 (≈ 0.909 µM) | 1.56 (≈ 0.909 µM) | 6.25 (≈ 3.64 µM) | 1 (≈ 0.582 µM) | 0.5 (≈ 0.291 µM) | 0.5 (≈ 0.291 µM) | 0.5 (≈ 0.291 µM) | 0.25 (≈ 0.146 µM) | 8 (≈ 4.66 µM) | ≤ 0.031 | 0.125 (≈ 0.0728 µM) | 4 | 4 | –
3 | CN[C@H](CC(C)C)C(=O)N[C@H]1C(=O)N[C@@H](CC(N)=O)C(=O)N[C@H]2C(=O)N[C@H]3C(=O)N[C@H](C(=O)N[C@@H](C(=O)O)c4cc(O)cc(O)c4-c4cc3ccc4O)[C@H](O[C@H]3C[C@](C)(N)[C@H](O)[C@H](C)O3)c3ccc(c(Cl)c3)Oc3cc2cc(c3O[C@@H]2O[C@H](CO)[C@@H](O)[C@H](O)[C@H]2O[C@H]2C[C@](C)(NCc3ccc(Br)cc3)[C@H](O)[C@H](C)O2)Oc2ccc(cc2Cl)[C@H]1O | 1.56 (≈ 0.886 µM) | 1.56 (≈ 0.886 µM) | 1.56 (≈ 0.886 µM) | 1.56 (≈ 0.886 µM) | 6.25 (≈ 3.55 µM) | 6.25 (≈ 3.55 µM) | 1 (≈ 0.568 µM) | 0.5 (≈ 0.284 µM) | 0.5 (≈ 0.284 µM) | 0.5 (≈ 0.284 µM) | ≤ 0.031 | 2 (≈ 1.14 µM) | ≤ 0.031 | ≤ 0.031 | – | 4 | 4
4 | CN[C@H](CC(C)C)C(=O)N[C@H]1C(=O)N[C@@H](CC(N)=O)C(=O)N[C@H]2C(=O)N[C@H]3C(=O)N[C@H](C(=O)N[C@@H](C(=O)O)c4cc(O)cc(O)c4-c4cc3ccc4O)[C@H](O[C@H]3C[C@](C)(N)[C@H](O)[C@H](C)O3)c3ccc(c(Cl)c3)Oc3cc2cc(c3O[C@@H]2O[C@H](CO)[C@@H](O)[C@H](O)[C@H]2O[C@H]2C[C@](C)(NCc3cccc(Br)c3)[C@H](O)[C@H](C)O2)Oc2ccc(cc2Cl)[C@H]1O | 0.78 (≈ 0.443 µM) | 0.78 (≈ 0.443 µM) | 0.78 (≈ 0.443 µM) | 0.78 (≈ 0.443 µM) | 3.13 (≈ 1.78 µM) | > 25 | 1 (≈ 0.568 µM) | 0.5 (≈ 0.284 µM) | 0.25 (≈ 0.142 µM) | 0.5 (≈ 0.284 µM) | ≤ 0.031 | 2 (≈ 1.14 µM) | ≤ 0.031 | ≤ 0.031 | – | 4 | 4
5 | CN[C@H](CC(C)C)C(=O)N[C@H]1C(=O)N[C@@H](CC(N)=O)C(=O)N[C@H]2C(=O)N[C@H]3C(=O)N[C@H](C(=O)N[C@@H](C(=O)O)c4cc(O)cc(O)c4-c4cc3ccc4O)[C@H](O[C@H]3C[C@](C)(N)[C@H](O)[C@H](C)O3)c3ccc(c(Cl)c3)Oc3cc2cc(c3O[C@@H]2O[C@H](CO)[C@@H](O)[C@H](O)[C@H]2O[C@H]2C[C@](C)(NCc3ccccc3Br)[C@H](O)[C@H](C)O2)Oc2ccc(cc2Cl)[C@H]1O | 1.56 (≈ 0.886 µM) | 0.195 (≈ 0.111 µM) | 1.56 (≈ 0.886 µM) | 1.56 (≈ 0.886 µM) | 0.39 (≈ 0.221 µM) | > 25 | 1 (≈ 0.568 µM) | 0.5 (≈ 0.284 µM) | 0.25 (≈ 0.142 µM) | 0.5 (≈ 0.284 µM) | 0.125 (≈ 0.071 µM) | 4 (≈ 2.27 µM) | ≤ 0.031 | 0.063 (≈ 0.0358 µM) | 4 | 4 | –
6 | CN[C@H](CC(C)C)C(=O)N[C@H]1C(=O)N[C@@H](CC(N)=O)C(=O)N[C@H]2C(=O)N[C@H]3C(=O)N[C@H](C(=O)N[C@@H](C(=O)O)c4cc(O)cc(O)c4-c4cc3ccc4O)[C@H](O[C@H]3C[C@](C)(N)[C@H](O)[C@H](C)O3)c3ccc(c(Cl)c3)Oc3cc2cc(c3O[C@@H]2O[C@H](CO)[C@@H](O)[C@H](O)[C@H]2O[C@H]2C[C@](C)(NCc3ccc(OC)cc3)[C@H](O)[C@H](C)O2)Oc2ccc(cc2Cl)[C@H]1O | 0.78 (≈ 0.455 µM) | 0.78 (≈ 0.455 µM) | 1.56 (≈ 0.911 µM) | 1.56 (≈ 0.911 µM) | 1.56 (≈ 0.911 µM) | 3.13 (≈ 1.83 µM) | 1 (≈ 0.584 µM) | 0.5 (≈ 0.292 µM) | 0.5 (≈ 0.292 µM) | 0.5 (≈ 0.292 µM) | 0.125 (≈ 0.073 µM) | 4 (≈ 2.34 µM) | 0.063 (≈ 0.0368 µM) | 0.125 (≈ 0.073 µM) | 4 | 4 | –
7 | CN[C@H](CC(C)C)C(=O)N[C@H]1C(=O)N[C@@H](CC(N)=O)C(=O)N[C@H]2C(=O)N[C@H]3C(=O)N[C@H](C(=O)N[C@@H](C(=O)O)c4cc(O)cc(O)c4-c4cc3ccc4O)[C@H](O[C@H]3C[C@](C)(N)[C@H](O)[C@H](C)O3)c3ccc(c(Cl)c3)Oc3cc2cc(c3O[C@@H]2O[C@H](CO)[C@@H](O)[C@H](O)[C@H]2O[C@H]2C[C@](C)(NCc3ccc(C(C)C)cc3)[C@H](O)[C@H](C)O2)Oc2ccc(cc2Cl)[C@H]1O | 1.56 (≈ 0.905 µM) | 0.78 (≈ 0.452 µM) | 1.56 (≈ 0.905 µM) | 1.56 (≈ 0.905 µM) | 1.56 (≈ 0.905 µM) | 6.25 (≈ 3.62 µM) | 1 (≈ 0.58 µM) | 0.5 (≈ 0.29 µM) | 0.5 (≈ 0.29 µM) | 0.5 (≈ 0.29 µM) | ≤ 0.031 | 2 (≈ 1.16 µM) | ≤ 0.031 | ≤ 0.031 | – | 4 | 4
8 | CCCCN[C@@]1(C)C[C@H](O[C@H]2[C@H](Oc3c4cc5cc3Oc3ccc(cc3Cl)[C@@H](O[C@H]3C[C@](C)(N)[C@H](O)[C@H](C)O3)[C@@H]3NC(=O)[C@H](NC(=O)[C@@H]5NC(=O)[C@H](CC(N)=O)NC(=O)[C@H](NC(=O)[C@@H](CC(C)C)NC)[C@H](O)c5ccc(c(Cl)c5)O4)c4ccc(O)c(c4)-c4c(O)cc(O)cc4[C@H](C(=O)O)NC3=O)O[C@H](CO)[C@@H](O)[C@@H]2O)O[C@@H](C)[C@H]1O | 0.78 (≈ 0.473 µM) | 0.39 (≈ 0.237 µM) | 1.56 (≈ 0.946 µM) | > 25 | 1.56 (≈ 0.946 µM) | > 25 | 0.5 (≈ 0.303 µM) | 0.5 (≈ 0.303 µM) | 0.5 (≈ 0.303 µM) | 1 (≈ 0.607 µM) | 0.25 (≈ 0.152 µM) | 32 (≈ 19.4 µM) | 0.063 (≈ 0.0382 µM) | 0.125 (≈ 0.0758 µM) | – | – | –
